According to patent publication US20240197692A1, “Combination Comprising Everolimus and Amcenestrant” (Sanofi, priority 2021, published 2024):

Columns and labels:
[1] = tested on: orthotopic MCF7 human breast cancer cell line xenograft; assay: Anti-tumor efficacy against orthotopic MCF7 human breast cancer cell line xenograft in NOD/SCID mice; format: in vivo, female NOD/SCID mice; settings: for Tumor volume changes from baseline: Median: amcenestrant 10 mg/kg BID, everolimus 10 mg/kg BIW; for Regressions Complete: animals with complete regression / animals in group; for Regressions Complete / Regressions Partial / Median % of regressions on day 28 / ΔT/ΔC in % at day 28: amcenestrant 10 mg/kg PO BID, everolimus 10 mg/kg PO BIW; for Regressions Partial: animals with partial regression / animals in group; for Biological Interpretation: based on ΔT/ΔC at day 28; for ΔT/ΔC in % at day 28: 28 days
Protocol: In the present study, the anti-tumor efficacy of amcenestrant combined with everolimus was investigated after 28 days treatment against an orthotopic MCF7 human breast cancer cell line xenograft in female NOD/SCID mice.
The treated groups included amcenestrant at 10 mg/kg alone, everolimus at 10 mg/kg alone, and the combination of amcenestrant and everolimus at the same dose and regime.
For 28 days, amcenestrant was orally dosed twice a day (BID), and everolimus was orally dosed twice a week (BIW). Anti-tumor efficacy was evaluated by tumor volume measurement.
Female NOD/SCID mice were obtained from GemPharmatech Co., Ltd (Nanjing University National Resource Center for Mutant Mice, Model Animal Research Center) (Nanjing, CHINA). Animals were allowed to acclimate for at least four days before the study enrollment. Mice were 7 to 8 weeks old and weighed between 22.5 and 28.4 grams at the beginning of the treatments. These animals were housed under conditions outlined in the guidelines approved by the Institutional Animal Care and Use Committee (IACUC) of CrownBio following the guidance of the Association for Assessment and Accreditation of Laboratory Animal Care (AAALAC).
MCF7 cells were obtained from the American Type Culture Collection (ATCC® HTB-22™). The MCF7 tumor cells were maintained in vitro with MEM medium supplemented with 10% fetal bovine serum, 0.01 mM non-essential amino acid, 0.01 mg/ml bovine insulin, and 2 mM L-glutamine at 37° C. in an atmosphere of 5% CO2 in air. The cells in exponential growth phase were harvested and quantitated by cell counter before tumor inoculation.
The mouse was subcutaneously implanted with estrogen pellets (0.18 mg/pellet, 17β-estradiol, Innovative Research of America, Sarasota, Florida, USA), hereafter referred to as “E2 supplement”, at the right flank one day before the tumor inoculation. Each mouse was inoculated with MCF-7 tumor cells (2×10 e7) in 0.25 ml of PBS/Matrigel (1:1) mixture at the right mammary fat pad for tumor development.
Everolimus (Manufacturer: Selleck; Lot number: S1120) was formulated in 30% propylene glycol (dissolve first): 5% Tween 80: 65% ddH2O (double distilled water).
Dose volume for amcenestrant and everolimus for oral administration: 10 ml/kg.
Doses: amcenestrant at 10 mg/kg and everolimus at 10 mg/kg in the above volume.
Animal body weight was assessed daily.
Vehicle treated animals were used as controls.
The primary efficacy end points include tumor volume changes from baseline summarized by the ratio of medians of tumor volume changes from baseline between the treated and control groups (ΔT/ΔC). Changes in tumor volume for each treated (T) and control (C) group were calculated for each animal on each day by subtracting the tumor volume on the day of first treatment (staging day) from the tumor volume on the specified observation day. The median ΔT was calculated for the treated group and the median ΔC was calculated for the control group. The ratio ΔT/ΔC was calculated and expressed as percentage: […]
Percent tumor regression is defined as % (percentage) of tumor volume decrease in the treated group on a specified observation day compared to its volume when the study was initiated. At a specific time point (t) and for each animal, the regression percentage was calculated using the following formula: […]
The median percent regression for a group on a given day was then calculated by taking the median of individual % regression values calculated for each animal in the group. The day of calculation was determined by the day when ΔT/ΔC is calculated, except if median percent regression was not representative of the activity of the group. In this case, the day was determined by the first day when the median percent regression was maximal.
A two-way analysis of variance (ANOVA) with factors treatment and day (repeated) was performed on tumor volume changes from baseline.

[2] = amcenestrant 10 mg/kg BID, everolimus 10 mg/kg BIW, 28 days
Protocol: The animals required for experiment (plus extra) were pooled and implanted with MCF7 cells. On day 0 (12 days post implantation), the mice were pooled and randomly distributed to the treatment and control groups (10 mice per group), where median tumor volumes for each group was 119 mm^3. Treatments of amcenestrant and everolimus were initiated on day 1. For 28 days, amcenestrant was orally administered at 10 mg/kg BID (8 hours apart), and everolimus was orally administered at 10 mg/kg BIW. Animal body weight was assessed daily.
The dosages are expressed in mg/kg and based on daily body weight per animal. Vehicle treated animals were used as controls. Mice were checked daily for adverse clinical reactions. Individual mice were weighed daily until the end of the experiment. Mice were euthanized when morbid or weight loss ≥20% was observed. Tumors were measured with a caliper twice weekly until final sacrifice. When a tumor size reached approximately 3000 mm^3 or when there were animal health issues (40% area of a tumor ulcerated), animals were euthanized, and date of death recorded. Solid tumor volumes were estimated from two-dimensional tumor measurements and calculated according to the following equation:
Animal body weight included the tumor weight.

Row | Structure (SMILES) | Tumor volume changes from baseline: Median ([1]; Day 4) | Tumor volume changes from baseline: Median ([1]; Day 7) | Tumor volume changes from baseline: Median ([1]; Day 11) | Tumor volume changes from baseline: Median ([1]; Day 14) | Tumor volume changes from baseline: Median ([1]; Day 18) | Tumor volume changes from baseline: Median ([1]; Day 21) | Tumor volume changes from baseline: Median ([1]; Day 25) | Tumor volume changes from baseline: Median ([1]; Day 28) | Regressions Complete [1] | Regressions Partial [1] | Biological Interpretation [1] | Median % of regressions on day 28 [1] | ΔT/ΔC in % at day 28 [1] | Drug-related body weight loss/animal death [2]
1 | O=C(O)c1ccc2c(c1)CCCC(c1ccc(Cl)cc1Cl)=C2c1ccc(O[C@H]2CCN(CCCF)C2)cc1 [Amcenestrant, 6-(2,4-dichlorophenyl)-5-[4-[(3S)-1-(3-fluoropropyl)pyrrolidin-3-yl]oxyphenyl]-8,9-dihydro-7H-benzo[7]annulene-2-carboxylic acid] | 22.0 mm^3 | 32.5 mm^3 | 60.0 mm^3 | 76.5 mm^3 | 40.0 mm^3 | −2.0 mm^3 | −38.0 mm^3 | −42.0 mm^3 | 0/9 | 8/9 | Very active (ΔT/ΔC<0% is considered as tumor regression (very active)) | −13% | −13% | no drug-related body weight loss/animal death was observed
2 | CO[C@H]1C[C@@H]2CC[C@@H](C)[C@@](O)(O2)C(=O)C(=O)N2CCCC[C@H]2C(=O)O[C@H]([C@H](C)C[C@@H]2CC[C@@H](OCCO)[C@H](OC)C2)CC(=O)[C@H](C)/C=C(\C)[C@@H](O)[C@@H](OC)C(=O)[C@H](C)C[C@H](C)/C=C/C=C/C=C/1C [Everolimus] | 28.5 mm^3 | 48.0 mm^3 | 65.0 mm^3 | 81.5 mm^3 | 10.0 mm^3 | −48.0 mm^3 | −47.0 mm^3 | −53.0 mm^3 | 0/6 | 5/6 | Very active (ΔT/ΔC<0% is considered as tumor regression (very active)) | −17% | −17% | no drug-related body weight loss/animal death was observed
